{"source": "paper PMC12524408", "about": "(International Journal of Molecular Sciences, 2025)", "key": {"DSS-induced colitis": {"system": "DSS-induced colitis", "test": "Therapeutic effect of PEG-AM after onset of DSS colitis (Study No. P200487)", "format": "in vivo, mouse", "settings": "vs control, n = 6", "protocol": "DSS was administered for five days to induce colitis, followed by the administration of PEG-AM or saline on day 5. DSS was replaced with water on day 6 to evaluate recovery. […] (a) Overview of the experimental design. Groups: vehicle (n = 6), PEG-AM 25 nmol/kg (n = 6), 250 nmol/kg (n = 6). (b) Time course of total inflammation scores after PEG-AM administration. (c) Colon length, * p < 0.05, one-way ANOVA followed by Dunnett’s multiple-comparisons test. ns, not significant. (d) Colon weight-to-length ratio, * p < 0.05, one-way ANOVA followed by Dunnett’s multiple-comparisons test. ns, not significant. (e) PEG-AM plasma concentrations on day 12. (f–i) Fold changes in gene expression of RAMP1 (f), RAMP2 (g), RAMP3 (h), and CLR (i). To evaluate the pharmacological effects of PEG-AM, three animal studies were conducted by the LSI Medience Corporation following the Animal Welfare Act and institutional approval. Seven-week-old male C57BL/6J JCL mice (CLEA Japan, Inc., Tokyo, Japan) were used in all studies and were housed under pathogen-free conditions. Colitis was induced with 2% (w/v) DSS (MW 36,000–50,000) for five days. On day 5, the mice were assigned to three groups and intravenously administered one of PEG-AM (25 or 250 nmol/kg) or saline. On day 6, DSS was replaced with water. Clinical symptoms were evaluated on days 5, 8, 10, and 12. The inflammation scores were calculated. Colons were collected on day 12 under isoflurane anesthesia."}, "RAMP1, RAMP2, RAMP3, CLR": {"system": "RAMP1, RAMP2, RAMP3, CLR", "test": "Gene expression of receptor components in distal colon, Study No. P200487", "format": "in vivo, mouse", "settings": "25 and 250 nmol/kg i.v., day 12, qPCR", "from_the_text": "Figure 6 Therapeutic effects of PEG-AM administered after disease onset in DSS-induced colitis (Study No. P200487). (a) Overview of the experimental design. Groups: vehicle (n = 6), PEG-AM 25 nmol/kg (n = 6), 250 nmol/kg (n = 6). (b) Time course of total inflammation scores after PEG-AM administration. (c) Colon length, * p < 0.05, one-way ANOVA followed by Dunnett’s multiple-comparisons test. ns, not significant. (d) Colon weight-to-length ratio, * p < 0.05, one-way ANOVA followed by Dunnett’s multiple-comparisons test. ns, not significant. (e) PEG-AM plasma concentrations on day 12. (f–i) Fold changes in gene expression of RAMP1 (f), RAMP2 (g), RAMP3 (h), and CLR (i).\nAfter measuring colon length and weight, distal colon tissue was collected, immersed in RNAlater (Thermo Fisher Scientific K.K.), and stored at −80 °C until RNA extraction. Total RNA was extracted using the RNeasy Micro Kit (Qiagen, Singapore) and quantified using a DeNovix DS-11 Microvolume Spectrophotometer. cDNA was synthesized from 2 μg of total RNA using a high-capacity cDNA Reverse Transcription Kit (Thermo Fisher Scientific K.K.). Quantitative PCR was performed using the StepOnePlus Real-Time PCR System (Applied Biosystems, Waltham, MA, USA) and TaqMan Gene Expression Assays for mouse RAMP1, RAMP2, RAMP3, CLR (CALCRL), and GAPDH (internal control). […]"}}}
{"substance": "40 kDa PEGylated adrenomedullin [PEG-AM]", "values": [{"measurement": "Colon weight per unit length", "setting": "DSS-induced colitis; 250 nmol/kg i.v. on day 5 after DSS onset, day 12, p = 0.039, Dunnett's test", "value": "significantly lower"}, {"measurement": "Total inflammation scores over time", "setting": "DSS-induced colitis; 25 or 250 nmol/kg i.v. on day 5 after 2% DSS (MW 36,000-50,000) for five days, days 5-12", "value": "did not significantly alter"}, {"measurement": "Colon length", "setting": "DSS-induced colitis; i.v. on day 5 after DSS onset, day 12, p = 0.014, one-way ANOVA with Dunnett's test, dose group not given", "value": "significantly longer"}, {"measurement": "RAMP2 expression", "setting": "RAMP1, RAMP2, RAMP3, CLR", "value": "increased in a dose-dependent manner; however, the increase was not statistically significant"}, {"measurement": "Receptor component expression (RAMP1, RAMP2, RAMP3, CLR)", "setting": "RAMP1, RAMP2, RAMP3, CLR", "value": "No downregulation"}]}
